Results on ten molecules are retold here after patent US6716851B2, “Substituted 2-aryl-4-arylaminopyrimidines and analogs as activators or caspases and inducers of apoptosis and the use thereof” (Cytovia, Inc., priority 2000, dated 2004).

SMILES strings stand for the structures.

In one test the test system is T-47D cells. The test can be described thus: Caspase cascade activation (N-(Ac-DEVD)-N'-ethoxycarbonyl-R110 fluorogenic substrate) in T-47D cells. The test is classed as cell-based, Human. The conditions noted are these: 48 h incubation; for EC50: Homo sapiens, T47D, caspase activation potency, read-out: T47 EC50; for T47 Ratio 48 hr: caspase activity: ratio of net RFU of test compound to control. In a few lines:
(§1)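 EC50 comes from sigmoidal fitting of the net RFU ratio over DMSO control, read at ex 485/em 530 nm 3 h after adding 14 μM Ac-DEVD-R110 in lysolecithin/DTT/PIPES pH 7.2 buffer. Compound (0.016-10 μM final) was applied to cells for 48 h at 37 °C beforehand.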

For a further test, the system named is ZR-75-1 cells. The test can be described thus: Caspase cascade activation (N-(Ac-DEVD)-N'-ethoxycarbonyl-R110 fluorogenic substrate) in ZR-75-1 cells. The class given is cell-based, Human. To be noted: ZR-75-1, 48 h incubation; for EC50: Homo sapiens, caspase activation potency; for ZR Ratio 48 hr: caspase activity: ratio of net RFU of test compound to control. In a few lines: as §1

One may read the EC50 as the concentration needed to bring the measured effect to its halfway point. For `COc1cc(Nc2cc(C(F)(F)F)nc(-c3cccnc3)n2)cc(C(F)(F)F)c1` [Example 124, 4-(3-Methoxy-5-trifluoromethylanilino)-2-(3-pyridinyl)-6-(trifluoromethyl)pyrimidine], in the test on T-47D cells, the EC50 amounted to 720 nM and the “T47 Ratio 48 hr” value is listed as 19.9. In the test on ZR-75-1 cells, the midpoint of the response, the EC50, lay at 688 nM and the “ZR Ratio 48 hr” value was 16.3.
Take `COc1cc(Nc2cc(C(F)(F)F)nc(-c3ccccn3)n2)c(OC)cc1Cl.Cl` [Example 150, 4-(4-Chloro-2,5-dimethoxyanilino)-2-(2-pyridinyl)-6-(trifluoromethyl)pyrimidine hydrochloride]: in the test on T-47D cells, the half-maximal effective concentration (EC50) was determined as 135 nM and the “T47 Ratio 48 hr” value was 11.0. Also, in the test with ZR-75-1 cells, it took 133 nM to reach a half-maximal effect (EC50) and the “ZR Ratio 48 hr” value was found to be 9.7.
For `Cc1ccc(F)cc1Nc1cc(C(F)(F)F)nc(-c2cccnc2)n1` [Example 88, 4-(5-Fluoro-2-methylanilino)-2-(3-pyridinyl)-6-(trifluoromethyl)pyrimidine] the same measures were 2320 nM, 9.8, 1220 nM and 8.0.
For the molecule `COc1cccc(Nc2nc(-c3ccccn3)ncc2OC)c1` [Example 18, 4-(3-Methoxyanilino)-5-methoxy-2-(2-pyridinyl)pyrimidine], in the test with T-47D cells, the concentration giving a half-maximal response (EC50) was over 5000 nM and the “T47 Ratio 48 hr” value came to 1.9. In addition, in the test on ZR-75-1 cells, the EC50 came to 4900 nM and the “ZR Ratio 48 hr” value was 7.8.
On the same counts, the results for `COc1ccc(Cl)c(Nc2cc(-c3ccccn3)nc(-c3ccccn3)n2)c1.Cl` [Example 113, 4-(2-Chloro-5-methoxyanilino)-2,6-di(2-pyridinyl)pyrimidine] are 1430 nM, 4.4, 2730 nM and 4.1.
For `Cc1cc(Nc2cc(C(F)(F)F)nc(-c3cccnc3)n2)cc(C(F)(F)F)c1` [Example 128, 4-[3-Methyl-5-(trifluoromethyl)anilino]-2-(3-pyridinyl)-6-(trifluoromethyl)pyrimidine] the same measures were over 5000 nM, 1.4, over 5000 nM and 1.5.
As to `COc1cccc(Nc2cc(C(F)(F)F)nc(-c3ccncc3)n2)c1` [Example 41, 4-(3-Methoxyanilino)-2-(4-pyridinyl)-6-(trifluoromethyl)pyrimidine], in the test with T-47D cells, the EC50 amounted to 521 nM and the “T47 Ratio 48 hr” value was 7.5. Moreover, in the test with ZR-75-1 cells, the EC50 was over 5000 nM and the “ZR Ratio 48 hr” value amounted to 1.6.
Regarding `CCOc1ccc(OCC)c(Nc2cc(C(F)(F)F)nc(-c3cccnc3)n2)c1` [Example 102, 4-(2,5-Diethoxyanilino)-2-(3-pyridinyl)-6-(trifluoromethyl)pyrimidine], in the test on T-47D cells, the EC50 worked out at 512 nM and the “T47 Ratio 48 hr” value is 8.0. In the test with ZR-75-1 cells, the EC50 came out at 701 nM and the “ZR Ratio 48 hr” value was 7.4.
Take `Cc1ccc(O)cc1Nc1cc(C(F)(F)F)nc(-c2ccccn2)n1` [Example 188, 4-(5-Hydroxy-2-methylanilino)-2-(2-pyridinyl)-6-trifluoromethylpyrimidine]: in the test on T-47D cells, the EC50 amounted to 429 nM and the “T47 Ratio 48 hr” value is listed as 3.6. In addition, in the test on ZR-75-1 cells, the EC50 stood at 271 nM and the “ZR Ratio 48 hr” value is 9.3.
Take `Oc1ccc(Cl)cc1Nc1cc(C(F)(F)F)nc(-c2cnccn2)n1` [Example 198, 4-(5-Chloro-2-hydroxyanilino)-2-(2-pyrazinyl)-6-trifluoromethylpyrimidine]: in the test on T-47D cells, the EC50 stood at 419 nM and the “T47 Ratio 48 hr” value was determined as 3.3. Moreover, in the test with ZR-75-1 cells, the EC50 is over 5000 nM and the “ZR Ratio 48 hr” value was determined as 1.8.
